# Patent EP0233841A1, “Quinone derivatives and process for their preparation” (Arai, Tadashi, Prof., priority 1986, dated 1987)
# Test system: Leukämie-Zellinie L1210
# Test: in vitro cytotoxicity test, growth inhibition of cultured leukaemia cell line L1210
# Assay type: cell-based, Mäuse
# Conditions: Mus musculus, 72 h; L1210 cells, 3-day incubation, cell count, by interpolation; read-out: ID₅₀ (50 % Hemmwirkdosis)
# Protocol: Die Saframycin-Derivate der vorliegenden Erfindungen zeigen insbesondere in vitro Zytotoxizität gegenüber Zellkulturen von Mäuse-Leukämie-Zellen L 1210 (NCI). Für die geprüften Verbindungen werden ID₅₀-Werte im Bereich von 0,1 bis 0,001 µg/ml gefunden.
# Die Wirksamkeit gegen Tumoren in vitro wird mit einer kultivierten Leukämie-Zellinie L1210 (K. Kishi et al., J. Antibiot. 37, 847 (1984)) bestimmt. Die Zellen werden in Eagle's minimum essential medium (Nissui Seiyaku Co. Ltd., Tokyo) enthaltend 10 % fötales Kälberserum (Gibco Laboratories) in Suspension-Kultur gehalten. Die Zellen werden bei einer Konzentration von 3x10⁴ Zellen/ml in 24-Loch-Mikrotiterplatten (Costar) suspendiert und bei 37° in einer feuchten Atmosphäre enthaltend 5 % CO₂ in Luft 24 Stunden lang kultiviert, um exponentielles Wachstum auszulösen. Diese Kulturen werden mit einer Reihe von jeweils um den Faktor 10 verdünnten Proben Saframycin-Derivaten dieser Erfindung versetzt. Die Konzentration der Zellen wird nach 3-tägiger Inkubation durch elektrische Zählung mit einem Sysmex CC-130 Mikro-Zellzählgerät (Toa Electronics Ltd., Tokyo) bestimmt. Die Wachstumshemmung (Inhibierung I) in Prozent wird für jede Dosismenge nach der Formel I=(C3-T3)/(C3-C0)x100, worin T3 die Zellkonzentration in den Vertiefungen der Mikrotiterplatte bei einer gegebenen Verdünnung des Wirkstoffs nach 3-tägiger Inkubation, C3 die Zellkonzentration in der entsprechenden Kontroll-Inkubation und C0 die Zellkonzentration in den Vertiefungen vor der 3-tägigen Inkubation bedeuten, berechnet. ID₅₀ (50 % Hemmwirkdosis) wird durch Interpolierung bestimmt.
row,SMILES,IC50 [µg/mL]
1,"CCCCN(CCCC)[C@@H](C)C(=O)NCC1C2=C(CC3C4C5=C(CC(C(C#N)N13)N4C)C(=O)C(C)=C(OC)C5=O)C(=O)C(C)=C(OC)C2=O (stereo partly drawn) [N,N-Dibutyl-Saframycin Y₃, N,N-Di-n-butyl-Saframycin Y₃]",0.08
2,"CCCN(CCC)[C@@H](C)C(=O)NCC1C2=C(CC3C4C5=C(CC(C(C#N)N13)N4C)C(=O)C(C)=C(OC)C5=O)C(=O)C(C)=C(OC)C2=O (stereo partly drawn) [N,N-Dipropyl-Saframycin Y₃, N,N-Di-n-propyl-Saframycin Y₃]",0.0015
3,"CCN(CC)[C@@H](C)C(=O)NCC1C2=C(CC3C4C5=C(CC(C(C#N)N13)N4C)C(=O)C(C)=C(OC)C5=O)C(=O)C(C)=C(OC)C2=O (stereo partly drawn) [N,N-Diäthyl-Saframycin Y₃]",0.0035
4,COC1=C(C)C(=O)C2=C(C1=O)C1C3CC4=C(C(=O)C(OC)=C(C)C4=O)C(CNC(=O)[C@H](C)NC(C)C)N3C(C#N)C(C2)N1C (stereo partly drawn) [N-Isopropyl-Saframycin Y₃],0.0018
5,COC1=C(C)C(=O)C2=C(C1=O)C1C3CC4=C(C(=O)C(OC)=C(C)C4=O)C(CNC(=O)[C@H](C)NC(=O)Nc4ccccc4)N3C(C#N)C(C2)N1C (stereo partly drawn) [N-Phenylcarbamoyl-Saframycin Y₃],0.04
6,COC1=C(C)C(=O)C2=C(C1=O)C1C3CC4=C(C(=O)C(OC)=C(C)C4=O)C(CNC(=O)[C@H](C)NC(=S)Nc4ccccc4)N3C(C#N)C(C2)N1C (stereo partly drawn) [N-Phenylthiocarbamoyl-Saframycin Y₃],0.1
7,COC1=C(C)C(=O)C2=C(C1=O)C1C3CC4=C(C(=O)C(OC)=C(C)C4=O)C(CNC(=O)[C@H](C)NC(=O)C(C)(C)C)N3C(C#N)C(C2)N1C (stereo partly drawn) [N-Pivaloyl-Saframycin Y₃],0.01
8,CCC(=O)N[C@@H](C)C(=O)NCC1C2=C(CC3C4C5=C(CC(C(C#N)N13)N4C)C(=O)C(C)=C(OC)C5=O)C(=O)C(C)=C(OC)C2=O (stereo partly drawn) [N-Propionyl-Saframycin Y₃],0.02
9,CCCCCCCCCC(=O)N[C@@H](C)C(=O)NCC1C2=C(CC3C4C5=C(CC(C(C#N)N13)N4C)C(=O)C(C)=C(OC)C5=O)C(=O)C(C)=C(OC)C2=O (stereo partly drawn) [N-n-Decanoyl-Saframycin Y₃],0.11
10,CCCCCCCCCCCCCCCC(=O)N[C@@H](C)C(=O)NCC1C2=C(CC3C4C5=C(CC(C(C#N)N13)N4C)C(=O)C(C)=C(OC)C5=O)C(=O)C(C)=C(OC)C2=O (stereo partly drawn) [N-n-Hexadecanoyl-Saframycin Y₃],0.03
11,CCCCCC(=O)N[C@@H](C)C(=O)NCC1C2=C(CC3C4C5=C(CC(C(C#N)N13)N4C)C(=O)C(C)=C(OC)C5=O)C(=O)C(C)=C(OC)C2=O (stereo partly drawn) [N-n-Hexanoyl-Saframycin Y₃],0.0075
12,CCCCCCCC(=O)N[C@@H](C)C(=O)NCC1C2=C(CC3C4C5=C(CC(C(C#N)N13)N4C)C(=O)C(C)=C(OC)C5=O)C(=O)C(C)=C(OC)C2=O (stereo partly drawn) [N-n-Octanoyl-Saframycin Y₃],0.11
13,"COC1=C(C)C(=O)C2=C(C1=O)C1C3CC4=C(C(=O)C(OC)=C(C)C4=O)C(CNC(=O)[C@H](C)NC(=O)c4ccc(Br)cc4)N3C(C#N)C(C2)N1C (stereo partly drawn) [N-p-Brombenzyol-Saframycin Y₃, N-p-Brombenzoyl-Saframycin Y₃]",0.01
14,COC1=C(C)C(=O)C2=C(C1=O)C1C3CC4=C(C(=O)C(OC)=C(C)C4=O)C(CNC(=O)[C@H](C)NCc4ccc([N+](=O)[O-])cc4)N3C(C#N)C(C2)N1C (stereo partly drawn) [N-p-Nitrobenzyl-Saframycin Y₃],0.0015
15,COC1=C(C)C(=O)C2=C(C1=O)C1C3CC4=C(C(=O)C(OC)=C(C)C4=O)C(CNC(=O)[C@H](C)NC(=O)Nc4cccc5ccccc45)N3C(C#N)C(C2)N1C (stereo partly drawn) [N-α-Naphthylcarbamoyl-Saframycin Y₃],0.08
